Test results as given in the supplement of paper PMC10307832.

Tests used:
Assay in all cases: relative viability (nuclei count vs DMSO), 5 days (fraction); higher = more cells survive
TGX 221 + Pictilisib = compound: CC1=CN2C(=O)C=C(N=C2C(=C1)C(C)NC3=CC=CC=C3)N4CCOCC4 [TGX 221] + CS(=O)(=O)N1CCN(Cc2cc3nc(-c4cccc5[nH]ncc45)nc(N4CCOCC4)c3s2)CC1 [Pictilisib] (partner 1 µM)
Summary of the method: (§1)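 For relative viability, nuclei counts in treated wells were divided by those in vehicle wells. Lung cancer cell lines had been pin-tool dosed in 1536-well plates the day after seeding and cultured for 5 days, then fixed and stained in one step (final 0.05% Triton X-100, 1% formaldehyde, 1 ug/ml Hoechst) and imaged at 4×. Doses were one drug alone or a fixed anchor-drug dose plus five library-drug doses (not always all listed) in √10 steps, and values are duplicate-plate medians.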

[1] = compound: C1=CC=C(C(=C1)C2=CC=C(C=C2)C3=CSC4=C3C(=C(C(=O)N4)C#N)O)O + Nc1nc2[nH]cc(CCc3ccc(C(=O)N[C@@H](CCC(=O)O)C(=O)O)cc3)c2c(=O)[nH]1 [Pemetrexed] (partner 0.2 µM)
Summary of the method: as §1

TGX 221 + Foretinib = compound: CC1=CN2C(=O)C=C(N=C2C(=C1)C(C)NC3=CC=CC=C3)N4CCOCC4 [TGX 221] + COc1cc2c(Oc3ccc(NC(=O)C4(C(=O)Nc5ccc(F)cc5)CC4)cc3F)ccnc2cc1OCCCN1CCOCC1 [Foretinib] (partner 0.25 µM)
Summary of the method: as §1

Ricolinostat + Alpelisib = compound: O=C(CCCCCCNC(=O)c1cnc(N(c2ccccc2)c2ccccc2)nc1)NO [Ricolinostat] + Cc1nc(NC(=O)N2CCC[C@H]2C(N)=O)sc1-c1ccnc(C(C)(C)C(F)(F)F)c1 [Alpelisib] (partner 2 µM)
Summary of the method: as §1

Row | Cell Line | relative viability (TGX 221 + Pictilisib; first compound 0.08 µM) | relative viability (TGX 221 + Pictilisib; first compound 0.253 µM) | relative viability (TGX 221 + Pictilisib; first compound 0.8 µM) | relative viability (TGX 221 + Pictilisib; first compound 2.53 µM) | relative viability (TGX 221 + Pictilisib; first compound 8 µM) | relative viability ([1]; first compound 0.08 µM) | relative viability ([1]; first compound 0.253 µM) | relative viability ([1]; first compound 0.8 µM) | relative viability ([1]; first compound 2.53 µM) | relative viability ([1]; first compound 8 µM) | relative viability (TGX 221 + Foretinib; first compound 0.08 µM) | relative viability (TGX 221 + Foretinib; first compound 0.253 µM) | relative viability (TGX 221 + Foretinib; first compound 0.8 µM) | relative viability (TGX 221 + Foretinib; first compound 2.53 µM) | relative viability (TGX 221 + Foretinib; first compound 8 µM) | relative viability (Ricolinostat + Alpelisib; first compound 0.253 µM) | relative viability (Ricolinostat + Alpelisib; first compound 0.8 µM) | relative viability (Ricolinostat + Alpelisib; first compound 2.53 µM) | relative viability (Ricolinostat + Alpelisib; first compound 0.08 µM)
1 | NCI-H1793 | 0.274 | 0.303 | 0.317 | 0.413 | 0.291 | 0.69 | 0.862 | 0.713 | 0.687 | 0.802 | 0.708 | 0.462 | 0.51 | 0.452 | 0.411 | 0.633 | 0.698 | 0.755 | –
2 | NCI-H1651 | 0.501 | 0.481 | 0.584 | 0.578 | 0.465 | 0.386 | 0.62 | 0.513 | 0.617 | 0.549 | 0.768 | 0.611 | 0.729 | 0.586 | 0.609 | 0.997 | 0.917 | 0.884 | 0.885
3 | NCI-H1437 | 0.439 | 0.359 | 0.473 | 0.462 | 0.399 | 0.301 | 0.371 | 0.324 | 0.323 | 0.323 | 1.26 | 1.21 | 1.25 | 1.19 | 1.06 | 1.03 | 0.907 | 0.722 | 0.888
4 | SK-MES-1 | 0.406 | 0.363 | 0.304 | 0.328 | 0.289 | 1.02 | 1.03 | 1.02 | 0.987 | 1.02 | 0.994 | 0.733 | 0.863 | 0.75 | 0.558 | 0.761 | 0.805 | 0.591 | 0.541
5 | NCI-H647 | 0.407 | 0.404 | 0.406 | 0.37 | 0.412 | – | 0.18 | 0.16 | 0.17 | 0.189 | 1.05 | 1.04 | 1.21 | 0.762 | 0.931 | 1.09 | 1.15 | 0.937 | 1.16
6 | LK-2 | 0.583 | 0.782 | 0.597 | 0.515 | 0.659 | 0.168 | 0.245 | 0.236 | 0.325 | 0.196 | 1.2 | 1.2 | 1.53 | 1.17 | 0.998 | 0.995 | 1.07 | 1.62 | –
7 | LU99A | 0.268 | 0.303 | 0.32 | 0.357 | 0.317 | 0.191 | 0.138 | 0.265 | 0.178 | 0.335 | 0.68 | 0.902 | 0.755 | 0.917 | 0.953 | 0.512 | 0.362 | 0.437 | 0.438
8 | NCI-H661 | 0.388 | 0.464 | 0.403 | 0.323 | 0.355 | 0.834 | 1 | 0.933 | 0.937 | 0.85 | 1.03 | 0.987 | 1.02 | 1.09 | 0.82 | 0.597 | 0.642 | 0.844 | –
9 | NCI-H520 | 0.335 | 0.237 | 0.276 | 0.251 | 0.296 | 0.484 | 0.676 | 0.804 | 0.705 | 0.608 | 0.582 | 0.544 | 0.509 | 0.372 | 0.427 | 0.765 | 0.954 | 0.852 | –
10 | HCC-78 | 0.242 | 0.179 | – | 0.231 | 0.231 | 0.79 | 0.946 | 0.903 | 0.959 | 0.883 | 0.581 | 0.551 | 0.586 | 0.478 | 0.502 | 0.32 | 0.291 | 0.192 | –
11 | NCI-H1666 | 0.321 | 0.375 | 0.41 | 0.32 | 0.418 | 0.796 | 0.833 | 0.894 | 0.865 | 0.761 | 1.06 | 0.902 | 0.951 | 0.963 | 0.922 | 0.895 | 0.997 | 0.463 | 0.938
12 | EKVX | 0.337 | 0.458 | 0.448 | 0.39 | 0.404 | 0.425 | 0.497 | 0.399 | 0.465 | 0.336 | 0.691 | 0.914 | 0.763 | 0.691 | 0.925 | 0.883 | 0.882 | 0.942 | –
13 | HARA | 0.538 | 0.469 | 0.372 | 0.361 | 0.585 | 0.241 | 0.274 | 0.219 | 0.197 | 0.264 | 0.703 | 0.71 | 0.904 | 0.849 | 0.667 | 0.79 | 0.693 | 0.618 | 0.545
14 | A-427 | 0.613 | 0.7 | 0.679 | 0.676 | 0.676 | 0.941 | 1.11 | 1.03 | 1.01 | 0.989 | 1.15 | 0.987 | 1.12 | 1.05 | 1.06 | 1.07 | 1.09 | 0.983 | 0.927
15 | NCI-H2087 | 0.989 | 0.966 | 0.883 | 0.811 | 0.87 | 0.608 | 0.671 | 0.675 | 0.67 | 0.747 | 1.01 | 1.01 | 1.09 | 1.04 | 1.1 | 1.21 | 0.949 | 0.999 | 1.14
16 | NCI-H460 | 0.339 | 0.363 | 0.23 | 0.312 | 0.378 | 0.0846 | 0.0612 | 0.0666 | 0.0616 | 0.0618 | 1.02 | 0.968 | 1.14 | 0.957 | 0.83 | 0.461 | 0.421 | 0.402 | 0.321
17 | PC-14 | 0.695 | 0.61 | 0.612 | 0.685 | 0.625 | 0.151 | 0.156 | 0.153 | 0.125 | 0.146 | 1.04 | 0.953 | 0.934 | 1.06 | 0.858 | 0.903 | 0.917 | 0.66 | 0.821
